Test results: ChEMBL document CHEMBL3507680, “University of Dundee, Gates Library screen for HepG2 cell viability”

Assay: Human HepG2 cell viability assay in 384 well format
Assay type: toxicity, cell-based
Set-up: dose 125 nL, time 70.5 hour; concentration not given beside the values
Conditions: HepG2 cells, read-out: Inhibition

Compound	cytotoxicity at 70.5 h [%]
Cc1nc(CN2CCCC(NCCCc3ccccc3)C2)no1 (configuration not stated)	-10.6
O=C(CCCN1C(=O)CCC1=O)NCC1(c2ccccc2)CCC1	-11.4
Cc1cccc(-n2c(C)cc(C(=O)NS(C)(=O)=O)c2C)c1	-14.6
CC(NC(=O)NCCn1ccnc1)c1ccc2c(c1)OCCCO2 (configuration not stated)	-13.2
CC(NC(=O)NCCCO)c1ccc2c(c1)NC(=O)CO2 (configuration not stated)	-12
CNC(=O)c1cc(C)n(-c2cccc(OC)c2)c1C	11
CN(CC(N)=O)CC(=O)N1CC=C(c2ccccc2)CC1	-10.6
c1ccc2nc(N3CCOC(Cn4cccn4)C3)cnc2c1 (configuration not stated)	-11.7
CCOc1ccccc1CNC1CCCN(Cc2noc(C)n2)C1 (configuration not stated)	-9.86
Cc1cc(C)n(C2CCCN(C(=O)Cc3ccc(C#N)cc3)C2)n1 (configuration not stated)	-14.4
CNC(=O)CCNC(=O)c1cc(C)n(-c2cccc(OC)c2)c1C	-8.45
c1ccc2nc(N3CCOC(Cn4cncn4)C3)cnc2c1 (configuration not stated)	-5.96
Cc1n[nH]c(C2CN(C(=O)c3cc4c(s3)CCC4)CCO2)n1 (configuration not stated)	-14.5
Cc1cccc(C2(CNC(=O)CO)CCCC2)c1	17.1
O=C1C(NS(=O)(=O)c2cccc(F)c2)CCN1Cc1ccccc1 (configuration not stated)	-12
O=C1C(NS(=O)(=O)c2ccc(F)c(F)c2)CCN1Cc1ccccc1 (configuration not stated)	-7.62
CCc1n[nH]c(C2CN(C(=O)c3cc(C(N)=O)cs3)CCO2)n1 (configuration not stated)	-12.1
Cc1ccc(CC(=O)N2CCCC(n3nc(C)cc3C)C2)cn1 (configuration not stated)	-9.71
CCc1nc(CN(C(C)=O)C2CCN(CCc3ccncc3)C2)no1 (configuration not stated)	11.6
COc1ccc(CC(=O)N2CCCC(n3nc(C)cc3C)C2)cc1 (configuration not stated)	-3.95
Clc1ccccc1-c1nnc(CNCCn2cccn2)o1	-8.51
Cc1n[nH]c(C2CN(C(=O)c3cc4c(s3)CCCC4)CCO2)n1 (configuration not stated)	-4.81
CCCc1n[nH]c(C2CN(C(=O)c3cc4c(s3)CCC4)CCO2)n1 (configuration not stated)	-7.08
COc1ccc(CC(=O)N2CCCC(n3nc(C)cc3C)C2)cc1F (configuration not stated)	-9.02

Compound	cytotoxicity at 70.5 h [%]
CN1CCOC(CNCc2coc(-c3ccc(Cl)cc3)n2)C1 (configuration not stated)	-2.49
CN1CCOC(CNCc2coc(-c3cccc(F)c3)n2)C1 (configuration not stated)	36.2
Cc1nc(CSCCC(=O)NCc2ccncc2)cs1	-6.44
CCN(CC1CCCO1)C(=O)Nc1cccc(Cl)c1OC (configuration not stated)	24.1
Cc1cccc(NC2CCN(C(=O)Nc3cc(F)ccc3F)CC2)n1	0.351
Cc1cccc(NC2CCN(C(=O)Nc3ccc(F)cc3C)CC2)n1	-5.61
COc1cccc(CNCC2CN(C)CCO2)c1 (configuration not stated)	-7.17
COc1ccc(CNC(=O)CCSCc2csc(C)n2)cn1	-4.07
COCCOc1ccc(NC(=O)C2CC(=O)N(C(C)C)C2)cn1 (configuration not stated)	-4.64
COCCOc1ccc(NC(=O)C2CC(=O)N(CC3CC3)C2)cn1 (configuration not stated)	19.3
CCN(CC)C(CNC(=O)c1c(C)noc1C(C)C)c1ccsc1 (configuration not stated)	0.627
COCCOc1ccc(NC(=O)C2CC(=O)N(C3CC3)C2)cn1 (configuration not stated)	-4.78
Cc1cc(NC(=O)NCC(C)N2CCOCC2)n(C)n1 (configuration not stated)	-6.14
CCOc1ccc(C#N)cc1NCC(=O)OC	-2.6
CCOc1ccc(C#N)cc1NCC(=O)NC(=O)Nc1ccccc1	-8.89
OC(CN1CCC(c2ccn[nH]2)CC1)c1ccc(F)cc1 (configuration not stated)	26.4
OC(CN1CCC(c2ccn[nH]2)CC1)c1cc(F)ccc1F (configuration not stated)	-1.27
O=C(CCc1ccccc1)N1CC(n2cncn2)C1	-7.88
CN1CCC(N(C)C(=O)c2cnc3c(cnn3C3CCCC3)c2)CC1	-7.87
O=C(c1ccn(-c2ccc(F)cc2)n1)N1CCCC(n2ccnc2)C1 (configuration not stated)	-6.02
Cc1ccnc(NC(=O)c2[nH]nc(C(C)C)c2Br)c1	19.7
O=C(c1ccc(-n2cnnc2)cc1)N1CCCC(n2ccnc2)C1 (configuration not stated)	-8.88
Cc1cccc(NC2CCN(C(=O)Nc3cn[nH]c3)CC2)n1	-6.92
Cc1cnn(CC2CCCN2Cc2nc(N)c3ccccc3n2)c1 (configuration not stated)	45.2

Compound	cytotoxicity at 70.5 h [%]
Cc1cnn(CC2CCCN2Cc2ncc(-c3ccc(F)cc3)o2)c1 (configuration not stated)	24
CCC(O)CN1CCN(C(=O)c2cccn2Cc2cccnc2)CC1 (configuration not stated)	17.3
CCC(O)CN1CCN(C(=O)c2cccn2Cc2ccncc2)CC1 (configuration not stated)	21.3
N#Cc1ccccc1N1CCCN(C(=O)CCc2cccs2)CC1	-8.79
Fc1ccc(-c2nc(CN3CCCC3Cn3cncn3)co2)cc1F (configuration not stated)	17.9
CCOC(=O)c1sc2ccsc2c1CNC(=O)C(C)(C)C#N	-2.32
Cc1nc(C)n(C2CCCN(C(=O)c3ccc(NC4CC4)nc3)C2)n1 (configuration not stated)	-6.49
Nc1nc(CN2CCCC(Cn3cncn3)C2)nc2ccccc12 (configuration not stated)	1.03
Cc1nnc(NCc2cccnc2N(C)C)c(C#N)c1C	2.49
Cc1cnc(CN(C)C2CCN(CCc3ccccn3)CC2)cn1	14.7
CN(Cc1ncc[nH]1)CC(c1cccs1)N1CCOCC1 (configuration not stated)	17.4
Cc1nc(C)c(C(=O)NCCNC(=O)Cc2ccccc2)s1	-1.65
Cc1nc(C)c(C(=O)NCCNC(=O)Cc2cccc(F)c2)s1	-9.52
CC(NC(=O)NCCCOC1CCCCC1)c1nncn1C (configuration not stated)	-6.4
Cc1csc(N2CCCN(C(=O)C(C(C)C)n3cncn3)CC2)n1 (configuration not stated)	2.24
COCCN1CCN(CCCS(C)(=O)=O)CC1C (configuration not stated)	42.9
NC(=O)c1csc(C(=O)N2CCCCC2Cn2cccn2)c1 (configuration not stated)	-10.3
CC(C)n1ncc2cc(NC(=O)N3CCC(N4CCCC4)C3)cnc21 (configuration not stated)	1.93
Cc1ccc(C(=O)NS(=O)(=O)c2cccc3cnccc23)c(=O)[nH]1	-6.04
CC(C)(C#N)C(=O)N1CCCC(c2cc(C(F)(F)F)[nH]n2)C1 (configuration not stated)	-0.389
CCc1ccccc1-n1cc(O)c(C(=O)N2CCCCC2)n1	-4.48
O=C(c1nn(-c2ccccc2F)cc1O)N1CCCC1	-2.52
CCOCCN1CCN(Cc2cccc(C(=O)N(C)C)c2)CC1	40.4
COCCN1CCN(CCS(=O)(=O)C(F)(F)F)CC1C (configuration not stated)	-6.2

Compound	cytotoxicity at 70.5 h [%]
CC(O)CN1CCN(Cc2cccc(C(=O)N(C)C)c2)CC1 (configuration not stated)	-2.45
COc1c(C2CCCN2CC(=O)Nc2nc(C)cs2)c(C)nn1C (configuration not stated)	3.79
CCc1nc(C2CCCN(C(=O)c3cn(C)nc3C)C2)no1 (configuration not stated)	36.3
CCc1ccc(CCC(=O)N2CCOCC2c2ncon2)cc1 (configuration not stated)	-9.85
Cc1nc(CN(C)C2CCN(CC(=O)NC3CCOCC3)C2)no1 (configuration not stated)	4.94
CC(=O)N(Cc1noc(C2CC2)n1)C1CCN(Cc2cccnc2)C1 (configuration not stated)	-9.51
Cc1cnn(CC2CN(Cc3nnc(-c4occc4C)o3)CCO2)c1 (configuration not stated)	-18.4
Cc1ccccc1-n1ncc(C(=O)N2CCCC2c2cnn(C)c2)c1C (configuration not stated)	-13.6
Cc1nc(CN(C)C2CCN(CC3CCCCC3)C2)no1 (configuration not stated)	-11.6
N#Cc1ccc(CN2CCN(C(=O)c3cc(C4CC4)[nH]n3)CC2)cc1	0.0729
O=C(C1CCCCN1Cc1nc(-c2ccco2)no1)N1CCCC1 (configuration not stated)	4.12
O=C(NCCNc1ncccn1)C1CCN(C(=O)C2CC2)CC1	-13
COC(=O)c1cccc(OCCn2nc(-c3cccs3)oc2=O)c1	-21.5
O=C(C1CCCC1)N1CCN(Cc2nc(-c3ccco3)no2)CC1	-9.97
CC(C)c1ncncc1C(=O)N1CCN(Cc2cscn2)CC1	22.6
CCN(CC)C(=O)c1nnn(-c2ccc(C)cc2)c1C1CC1	-7.41
NC(=O)C1CN(C(=O)Nc2ccccc2-c2cccs2)CCO1 (configuration not stated)	-1.53
Cc1cnn(CC2CN(Cc3nnc(C4CC4)o3)CCO2)c1 (configuration not stated)	-5.68
NC(=O)C1CN(C(=O)Nc2ccccc2SC(F)(F)F)CCO1 (configuration not stated)	-10.6
c1ccc2oc(CCCN3CCCC3Cn3cncn3)nc2c1 (configuration not stated)	-15.6
Cc1nn(-c2ccccc2)nc1C(=O)N1CCCC1c1cnn(C)c1 (configuration not stated)	-18.4
NC(=O)C1CN(C(=O)Nc2ccccc2N2CCCCCC2)CCO1 (configuration not stated)	-17.5
O=C(c1ccc(Cl)c(Cl)c1)N1CCCC(n2cncn2)C1 (configuration not stated)	-14
O=C(CN1CC(n2cccn2)C1)NCCc1c[nH]c2ccccc12	-13.2

Compound	cytotoxicity at 70.5 h [%]
CN1CCOC(CN(C(=O)Cc2ccccc2F)c2nccs2)C1 (configuration not stated)	20.9
CN1CCOC(CN(C(=O)CC2CCCC2)c2nccs2)C1 (configuration not stated)	4.76
COc1cc(C(=O)NS(=O)(=O)c2cccc(C#N)c2)ccc1C	-7.93
Cc1cc(CC(=O)N(CC2CN(C)CCO2)c2nccs2)no1 (configuration not stated)	-10.3
Cc1nn(CC(C)C)c(N(C)C)c1CNCc1cccc2c1OCO2	10.6
CC(C)c1noc(C(C)N2CCN(CCO)CC2)n1 (configuration not stated)	-1.66
CN(Cc1nnc(C2CC2)n1C)C1CCN(Cc2ccon2)C1 (configuration not stated)	-12.4
CC(C)(NCC(=O)NCCC#N)c1ccc2c(c1)OCCO2	-10.6
Cc1nc(C)n(CC2CN(Cc3cccc(C#N)c3)CCO2)n1 (configuration not stated)	-24.6
CN(Cc1nnc(C2CC2)n1C)C1CCN(Cc2ccc(F)cc2)C1 (configuration not stated)	-6.24
Cc1cnn(CC2CCCN2Cc2nnc(Cc3ccccc3)o2)c1 (configuration not stated)	8
COc1c(CNCc2cccc(CS(C)(=O)=O)c2)c(C)nn1C	-17
Cc1nn(CC(C)C)c(N(C)C)c1CNCc1cc2ccccc2[nH]1	5.6
Cc1noc(CN(Cc2ccc3c(c2)OCO3)C2CCCC2)n1	-13
CC(C)c1nc(C2CCCN(C(=O)Cc3cccnc3)C2)no1 (configuration not stated)	-16.6
CC(C(=O)Nc1ccc(N2CCCC2)nc1)n1ccnc1 (configuration not stated)	-11.6
Cn1ccc(C(=O)N2CCN(c3cc(C#N)ccn3)CC2)cc1=O	-7.65
COc1cc(CNCc2ccnc(N3CCOCC3)c2)cc(Cl)c1OC	-18.7
N#Cc1ccc(S(=O)(=O)NC(=O)C2CC2)c(C(F)(F)F)c1	-13.8
CC(C(=O)Nc1cccc(N2CCCCC2)c1)n1cncn1 (configuration not stated)	-6.3
CCOC(=O)c1sc2ccsc2c1CN	-3.38
